For one compound, IC50 results are on record in PMC9863901, “CX08005, a Protein Tyrosine Phosphatase 1B Inhibitor, Attenuated Hepatic Lipid Accumulation and Microcirculation Dysfunction Associated with Nonalcoholic Fatty Liver Disease” (Pharmaceuticals, 2023).

The test addresses T1, Protein tyrosine phosphatase 1B (PTP1B) (Homo sapiens, UniProt P18031).
T1 construct: gene PTPN1; recombinant human His-PTP1B protein
T1 sequence (P18031 1-435): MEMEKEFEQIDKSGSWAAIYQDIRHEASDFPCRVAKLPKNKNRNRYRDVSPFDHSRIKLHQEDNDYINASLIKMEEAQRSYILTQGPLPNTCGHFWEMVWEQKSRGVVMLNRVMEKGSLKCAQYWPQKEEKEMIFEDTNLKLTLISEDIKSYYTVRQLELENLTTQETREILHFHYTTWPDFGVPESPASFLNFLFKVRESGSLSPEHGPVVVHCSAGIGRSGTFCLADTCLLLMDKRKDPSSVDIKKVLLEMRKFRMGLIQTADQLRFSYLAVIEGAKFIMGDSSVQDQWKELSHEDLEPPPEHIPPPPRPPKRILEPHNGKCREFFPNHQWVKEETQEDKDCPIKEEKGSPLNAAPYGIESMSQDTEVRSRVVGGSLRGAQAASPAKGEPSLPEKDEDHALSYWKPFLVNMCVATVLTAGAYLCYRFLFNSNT
The experiment in a line: pNPP phosphatase assay with recombinant His-PTP1B, absorbance at […] nm. The format is biochemical.

The structures appear in SMILES notation.

The term IC50 denotes the concentration at which inhibition is half-maximal. For the compound `CCCCCCCCCCCCCCOc1ccccc1NC(=O)c1ccccc1C(=O)O` [CX08005], the IC50 was 750 ± 70 nM.
